Test results reported in ChEMBL document CHEMBL1134219, “Gamma-lactone-Functionalized antitumoral acetogenins are the most potent inhibitors of mitochondrial complex I” (Bioorg Med Chem Lett, 2001).
pIC50: −log10 of the molar value.

Assays:
Bos taurus [1] = species: Bos taurus; assay: Relative inhibition of NADH-ubiquinone oxidoreductase (DB) and NADH oxidase activity; format: functional
[2] = molecular target: Mitochondrial complex I; NADH oxidoreductase (Bos taurus, UniProt P25708+P52505); assay: Inhibition of NADH oxidase activity in sub-mitochondrial particles from bovine heart; format: functional
Chain of Mitochondrial complex I; NADH oxidoreductase (P25708 21-464 limits assumed, other chains not shown): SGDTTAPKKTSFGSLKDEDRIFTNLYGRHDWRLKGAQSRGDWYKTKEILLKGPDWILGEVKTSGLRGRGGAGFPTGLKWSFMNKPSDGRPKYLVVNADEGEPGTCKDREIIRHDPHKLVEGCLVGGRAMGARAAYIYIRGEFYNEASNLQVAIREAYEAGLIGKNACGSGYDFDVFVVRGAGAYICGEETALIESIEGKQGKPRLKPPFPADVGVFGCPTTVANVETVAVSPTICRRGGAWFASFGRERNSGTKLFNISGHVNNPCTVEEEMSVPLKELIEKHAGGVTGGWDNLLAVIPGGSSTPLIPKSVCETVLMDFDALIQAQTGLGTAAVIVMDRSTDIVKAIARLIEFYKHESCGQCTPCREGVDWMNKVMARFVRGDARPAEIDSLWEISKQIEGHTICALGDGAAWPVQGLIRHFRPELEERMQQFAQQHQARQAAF

Bos taurus [3] = species: Bos taurus; assay: Inhibition of NADH-ubiquinone oxidoreductase using decylubiquinone (DB) acceptor; format: functional
Bos taurus [4] = species: Bos taurus; assay: Relative NADH oxidase activity compared to Laherradurin and 36-dihydroisorolliniastatin-1; format: functional
[5] = Potency relative to NADH oxidase activity of Laherradurin
[6] = Potency relative to NADH oxidase activity of and 36-dihydroisorolliniastatin-1

Row | SMILES | Ratio (Bos taurus [1]) | pIC50 [2] | pIC50 (Bos taurus [3]) | Relative potency (Bos taurus [4]) | Relative potency [5] | Relative potency [6]
1 | CCCCCCCCCC[C@H](O)[C@H]1CC[C@@H]([C@@H]2CC[C@H]([C@H](O)CCCCCCCCCC[C@H]3CC(CC(C)=O)C(=O)O3)O2)O1 (stereo not given in full) | 3.7 | 9.48 | 8.92 | 1.8 |  | 
2 | CCCCCCCCCC[C@H](O)[C@H]1CC[C@H]([C@H]2CC[C@H]([C@H](O)CCCCCCCCCCC3C(=O)O[C@@H](C)[C@@H]3O)O2)O1 (stereo not given in full) | 3.4 | 9.68 | 9.14 | 1.2 |  | 
3 | CCCCCCCCCC[C@H](O)[C@H]1CC[C@@H]([C@@H]2CC[C@H]([C@H](O)CCCCCCCCCC[C@H]3CC(C/C(C)=N/O)C(=O)O3)O2)O1 (stereo not given in full) | 1 | 9.64 | 9.66 | 1.3 |  | 
4 | CCCCCCCCCC[C@H](O)[C@H]1CC[C@@H]([C@@H]2CC[C@H]([C@H](O)CCCCCCCCCC[C@@H](O)CC3=C[C@H](C)OC3=O)O2)O1 [rolliniastatin-1] | 1.2 |  | 9.13 | 3.3 |  | 
5 | CCCCCCCCCC[C@@H](O)[C@@H]1CC[C@@H]([C@@H](O)CC[C@H](O)[C@@H]2CC[C@@H](CCCCCCC[C@@H](O)CC3(O)C(=O)O[C@H](C)[C@H]3O)O2)O1 (single isomer, unassigned) | 4.6 | 8.07 | 7.42 | 47.1 |  | 
6 | CCCCCCCCCC[C@H](O)[C@H]1CC[C@@H]([C@@H]2CC[C@H]([C@H](O)CCCCCCCCCC[C@H]3CC(CC(C)O)C(=O)O3)O2)O1 (stereo not given in full) | 1.2 | 9.74 | 9.68 |  | 1 | 
7 | CCCCCCCCCC[C@H](O)[C@H]1CC[C@H]([C@H]2CC[C@H]([C@H](O)CCCCCCCCCCCCC3C(=O)O[C@@H](C)[C@@H]3O)O2)O1 (stereo not given in full) [LAHERRADURIN] | 1.6 | 9.74 | 9.54 |  |  | 1
8 | CCCCCCCCCC[C@@H](O)[C@@H]1CC[C@@H]([C@@H](O)CC[C@H](O)[C@@H]2CC[C@@H](CCCCCCC[C@@H](O)CC3C[C@H](C)OC3=O)O2)O1 (stereo not given in full) | 2.7 | 8.91 | 8.48 | 6.8 |  | 
9 | CCCCCCCCCC[C@@H](O)[C@@H]1CC[C@@H]([C@@H](O)CC[C@H](O)[C@@H]2CC[C@@H](CCCCCCC[C@H]3CC(CC(C)=O)C(=O)O3)O2)O1 (stereo not given in full) | 3.5 | 9.08 | 8.54 | 4.6 |  | 
10 | CCCCCCCCCC[C@H](O)[C@H]1CC[C@@H]([C@@H]2CC[C@H]([C@H](O)CCCCCCCCCC[C@@H](O)CC3C[C@H](C)OC3=O)O2)O1 (stereo not given in full) | 1.3 | 9.37 | 9.24 | 2.4 |  | 
11 | CCCCCCCCCC[C@@H](O)[C@@H]1CC[C@@H]([C@@H](O)CC[C@H](O)[C@@H]2CC[C@@H](CCCCCCC[C@@H](O)CC3=C[C@H](C)OC3=O)O2)O1 | 2.8 | 8.74 | 8.29 | 10.2 |  | 
12 | CCCCCCCCCC[C@@H](O)[C@@H]1CC[C@@H]([C@@H](O)CC[C@H](O)[C@@H]2CC[C@@H](CCCCCCC[C@H]3CC(CC(C)O)C(=O)O3)O2)O1 (stereo not given in full) | 1.9 | 8.61 | 8.33 | 13.8 |  | 
13 | CCCCCCCCCC[C@@H](O)[C@@H]1CC[C@@H]([C@@H](O)CC[C@H](O)[C@@H]2CC[C@@H](CCCCCCC[C@H]3CC(C/C(C)=N/O)C(=O)O3)O2)O1 (stereo not given in full) | 2.6 | 9.27 | 8.85 | 3 |  | 
14 | CCCCCCCCCC[C@H](O)[C@H]1CC[C@@H]([C@@H]2CC[C@H]([C@H](O)CCCCCCCCCC[C@@H](O)CC3(O)C(=O)O[C@@H](C)[C@H]3O)O2)O1 (single isomer, unassigned) | 2.7 | 9.68 | 9.25 | 1.2 |  | 
